Read-outs that look alike come from different tables or passages of the source. Each block holds one compound with its values, some of them ahead of it.
Key:
[1] = target: T1, His-GST-TVMV-hRIPK1(1-324) (Homo sapiens, UniProt Q13546); test: biochemical; format: binding
T1 construct: The coding region of human RIPK1(1-324) flanked by NdeI site at 5′ end; made in house; host or cells: Spodoptera frugiperda Sf9 insect cells (baculovirus, Bac-to-Bac)
T1 sequence (Q13546 1-324): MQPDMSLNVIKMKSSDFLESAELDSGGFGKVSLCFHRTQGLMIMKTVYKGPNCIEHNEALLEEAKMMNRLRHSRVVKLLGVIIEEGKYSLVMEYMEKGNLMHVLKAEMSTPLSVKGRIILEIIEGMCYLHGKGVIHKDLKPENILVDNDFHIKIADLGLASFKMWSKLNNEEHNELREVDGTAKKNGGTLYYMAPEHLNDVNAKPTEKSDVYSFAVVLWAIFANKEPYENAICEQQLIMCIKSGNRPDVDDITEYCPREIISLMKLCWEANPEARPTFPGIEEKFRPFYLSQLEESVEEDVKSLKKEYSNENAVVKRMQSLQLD

[2] = system: MLKL phosphorylation in HT29-L23 human colorectal adenocarcinoma cells; test: MLKL phosphorylation high-content assay; format: cell-based
[3] = HTRF probe displacement, 1 h at rt, read-out: RIPK1 IC50
[4] = Homo sapiens, 6 h, read-out: pMLKL IC50, HT29-L23 cells, necroptosis induced with TNFα, SMAC mimetic and Z-VAD, 6 h, maximal inhibition defined by Nec1s
[5] = read-out: pMLKL IC50, HT29-L23 cells, necroptosis induced with TNFα, SMAC mimetic and Z-VAD, 6 h, maximal inhibition defined by Nec1s

Compound: Cc1ccc(-c2ccn3nc(N)nc3c2)c(F)c1C(=O)NCCC(O)c1cccc(C#N)c1 (stereo not drawn) [Example 140, 3-{2-amino-[1,2,4]triazolo[1,5-a]pyridin-7-yl}-N-[3-(3-cyanophenyl)-3-hydroxypropyl]-2-fluoro-6-methylbenzamide]
- IC50 [1, 3]: 0.6 nM
- IC50 [2, 4]: 13 nM

Compound: COC(=O)c1ccc(CCCNC(=O)c2c(Cl)ccc(-c3ccn4nc(N)nc4c3)c2F)cc1 [Example 273, methyl 4-(3-(3-(2-amino-[1,2,4]triazolo[1,5-a]pyridin-7-yl)-6-chloro-2-fluorobenzamido)propyl)benzoate]
- IC50 [1, 3]: 3.9 nM
- IC50 [2, 4]: 37 nM

Compound: Nc1nc2cc(-c3ccc(Cl)c(C(=O)NCC(F)(F)C(O)c4cccc(Cl)c4)c3F)ccn2n1 (stereo not drawn) [Example 193, 3-(2-amino-[1,2,4]triazolo[1,5-a]pyridin-7-yl)-6-chloro-N-(3-(3-chlorophenyl)-2,2-difluoro-3-hydroxypropyl)-2-fluorobenzamide]
- IC50 [1, 3]: 8.7 nM
- IC50 [2, 5]: 15 nM

Compound: [2H]C(O)(c1ccc(C(F)F)cc1)C(F)(F)CNC(=O)c1c(Cl)ccc(-c2ccn3nc(N)nc3c2)c1F (single isomer, unassigned) [Example 311, 3-(2-amino-[1,2,4]triazolo[1,5-a]pyridin-7-yl)-6-chloro-N-(3-(4-(difluoromethyl)phenyl)-2,2-difluoro-3-hydroxypropyl-3-d)-2-fluorobenzamide]
- IC50 [1, 3]: 5 nM
- IC50 [2, 4]: 0.8 nM

Compound: Nc1nc2cc(-c3ccc(Cl)c(C(=O)NCC(F)(F)C(O)C4CCC(F)(F)CC4)c3F)ccn2n1 (stereo not drawn) [Example 257, 3-(2-amino-[1,2,4]triazolo[1,5-a]pyridin-7-yl)-6-chloro-N-(3-(4,4-difluorocyclohexyl)-2,2-difluoro-3-hydroxypropyl)-2-fluorobenzamide]
- IC50 [1, 3]: 8.9 nM
- IC50 [2, 4]: 5.9 nM

- IC50 ([1]; Table 23, representative compounds from WO2018/148626, read-out: RIPK1 IC50): 120 nM
- IC50 ([2]; Homo sapiens, Table 23, representative compounds from WO2018/148626, read-out: pMLKL IC50): 146 nM
Compound: COc1ncc(-c2ccn3nc(N)nc3c2)cc1C(=O)NCCC(O)c1ccc(F)cc1 (stereo not drawn) [Example 78]

Compound: Nc1nc2cc(-c3ccc(Cl)c(C(=O)NCCC(O)c4ccc(F)cc4)c3F)ccn2n1 (stereo not drawn) [Example 78, 3-(2-amino-[1,2,4]triazolo[1,5-a]pyridin-7-yl)-6-chloro-2-fluoro-N-(3-(4-fluorophenyl)-3-hydroxypropyl)benzamide]
- IC50 [1, 3]: 19 nM
- IC50 ([1]; Table 22, compounds of the present invention, read-out: RPIK1 IC50): 19 nM
- IC50 [2, 4]: 9.9 nM
- IC50 ([2]; Homo sapiens, read-out: pMLKL IC50, Table 22, compounds of the present invention): 9.9 nM

Compound: Cc1cccc(C(O)C(F)(F)CNC(=O)c2c(Cl)ccc(-c3ccn4nc(N)nc4c3)c2F)c1 (stereo not drawn) [Example 175, 3-(2-amino-[1,2,4]triazolo[1,5-a]pyridin-7-yl)-6-chloro-N-(2,2-difluoro-3-hydroxy-3-(m-tolyl)propyl)-2-fluorobenzamide]
- IC50 [1, 3]: 2.7 nM
- IC50 [2, 5]: 7.8 nM

Compound: [2H]C([2H])([2H])c1ccc(-c2ccn3nc(N)nc3c2)c(F)c1C(=O)NCC(F)(F)C(O)c1ccc(F)cc1 (stereo not drawn) [Example 123, 3-(2-amino-[1,2,4]triazolo[1,5-a]pyridin-7-yl)-N-(2,2-difluoro-3-(4-fluorophenyl)-3-hydroxypropyl)-2-fluoro-6-(methyl-d3)benzamide]
- IC50 [1, 3]: 5.7 nM
- IC50 [2, 4]: 0.8 nM

Compound: Cc1ccc(-c2ccn3nc(N)nc3c2)c(F)c1C(=O)NCC(C)(F)C(O)c1ccc(F)cc1 (single isomer, unassigned) [Example 202, 3-(2-amino-[1,2,4]triazolo[1,5-a]pyridin-7-yl)-2-fluoro-N-(2-fluoro-3-(4-fluorophenyl)-3-hydroxy-2-methylpropyl)-6-methylbenzamide]
- IC50 [1, 3]: 13 nM
- IC50 [2, 5]: 2.1 nM

Compound: Nc1nc2cc(-c3ccc(Cl)c(C(=O)NCC(F)C(O)c4ccc(Cl)cc4)c3F)ccn2n1 (stereo not drawn) [Example 129, 3-(2-amino-[1,2,4]triazolo[1,5-a]pyridin-7-yl)-6-chloro-N-(3-(4-chlorophenyl)-2-fluoro-3-hydroxypropyl)-2-fluorobenzamide]
- IC50 [1, 3]: 3.5 nM
- IC50 [2, 5]: 1.7 nM
